For 1 compound, Kd and IC50 results are on record in ChEMBL document CHEMBL1135755, “SAR by MS: a ligand based technique for drug lead discovery against structured RNA targets” (J Med Chem, 2002).

Series [1] in a line: Dissociation constant was determined. The format is physicochemical.
Another series concerns Nucleic Acid. The experiment in a line: Inhibitory activity against RNA target using functional assay.

Usually Kd stands for the equilibrium constant for the complex coming apart. Low readings indicate a tighter complex, high ones a looser complex. The term IC50 denotes the point on the concentration scale where inhibition reaches its midpoint.

Take `NCC[C@@H](NC(=O)c1ccc(-c2cccc(NC(=O)c3ccc4nc(O)c(O)nc4c3)c2)o1)C(=O)N1CCNCC1`: in series [1], binding was put at a Kd of 6.5 µM. This compound also showed an IC50 with Nucleic Acid of 14 µM.
